From patent publication US8067424B2, “Selective inhibitors for cyclin-dependent kinases” (Emory University, priority 2007, dated 2011)
Like-named read-outs stand apart in the source and are kept apart here.

Tests used:
Assay type in all cases: biochemical
DYRK2 = target: T1, DYRK2 (Homo sapiens, UniProt Q92630); experiment: Kinase screen: DYRK2 assay
T1 sequence (Q92630 1-601): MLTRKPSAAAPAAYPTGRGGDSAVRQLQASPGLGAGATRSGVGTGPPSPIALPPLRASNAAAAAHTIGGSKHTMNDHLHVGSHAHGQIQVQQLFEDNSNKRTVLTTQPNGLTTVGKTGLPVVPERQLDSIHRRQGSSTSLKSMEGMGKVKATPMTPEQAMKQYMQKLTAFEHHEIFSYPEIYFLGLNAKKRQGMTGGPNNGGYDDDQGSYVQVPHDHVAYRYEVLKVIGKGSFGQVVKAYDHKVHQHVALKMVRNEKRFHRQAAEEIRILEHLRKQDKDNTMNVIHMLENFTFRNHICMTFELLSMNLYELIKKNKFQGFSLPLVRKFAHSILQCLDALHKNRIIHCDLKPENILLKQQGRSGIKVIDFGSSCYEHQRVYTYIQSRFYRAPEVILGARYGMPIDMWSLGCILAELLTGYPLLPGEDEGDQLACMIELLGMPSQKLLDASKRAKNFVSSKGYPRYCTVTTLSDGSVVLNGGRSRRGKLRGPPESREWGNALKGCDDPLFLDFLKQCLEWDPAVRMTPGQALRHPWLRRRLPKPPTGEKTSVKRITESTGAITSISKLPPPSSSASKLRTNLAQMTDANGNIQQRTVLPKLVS
Procedure: (§1) Generally, the same procedure was used for all assays. Since the total assay volume was 25.5 microliters, 0.5 microliters of inhibitors at 51× assay concentration were added to the plates before any other addition.
(§2) The basic procedure was to add 0.5 microliters inhibitor/control in DMSO to plate. Fifteen microliters of enzyme/substrate/buffer mix were added and incubated for 5 min. Ten microliters MgATP at the relevant concentration were added and incubated for 30 min. The assay was stopped by adding 5 microliters of 3% orthophosphoric acid. The assay was transferred to a p81 filter plate and read in a scintillation counter of 30 sec/well. Note that this assay procedure was not followed for MKK1, which instead involved a two-step assay, and PKC alpha, which required the addition of lipid vesicles.
DYRK2 assay: DYRK2 (5-20 mU of diluted in 50 mM Tris pH7.5, 0.1 mM EGTA) was assayed against Woodtide ([…]) (SEQ ID NO: 29) in a final volume of 25.5 μ1 containing 50 mM Tris pH 7.5, 0.1 mM EGTA, 350 μM substrate peptide, 10 mM Magnesium acetate and 0.05 mM [33P-g-ATP] (50-1000 cpm/pmole) and incubated for 30 min at room temperature. Assays were stopped by addition of 5 μl of 0.5 M (3%) orthophosphoric acid and then harvested onto P81 Unifilter plates with a wash buffer of 50 mM orthophosphoric acid.

PIM2 = PIM2 (Homo sapiens, UniProt Q9P1W9); experiment: Kinase screen: PIM2 assay
Chain of PIM2 (Q9P1W9 whole entry, species assumed): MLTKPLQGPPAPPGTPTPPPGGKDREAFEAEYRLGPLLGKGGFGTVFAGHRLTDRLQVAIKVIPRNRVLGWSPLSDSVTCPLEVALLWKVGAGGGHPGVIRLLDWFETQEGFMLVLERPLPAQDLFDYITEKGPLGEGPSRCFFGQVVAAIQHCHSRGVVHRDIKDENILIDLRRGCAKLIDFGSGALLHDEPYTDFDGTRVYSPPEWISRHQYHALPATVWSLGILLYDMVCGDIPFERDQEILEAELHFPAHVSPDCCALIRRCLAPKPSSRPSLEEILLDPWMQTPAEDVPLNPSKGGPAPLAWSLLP
Procedure: as §1, §2
PIM2 assay: 5-20 mU of PIM2 (diluted in 50 mM Tris (pH 7.5), 0.1 mM EGTA, 1 mg/ml BSA, 0.1%, b-Mercaptoethanol) was assayed against substrate peptide ([…]) (SEQ ID NO: 23) in a final volume of 25.5 μl containing 50 mM Tris (pH 7.5), 0.1 mM EGTA, 0.5 mM CaCl2, 0.3 μM calmodulin, 0.1%, b-Mercaptoethanol, 300 μM substrate peptide, 10 mM magnesium acetate and 0.005 mM [33P-g-ATP] (500-1000 cpm/pmole) and incubated for 30 mins at room temperature. Assays were stopped by addition of 5 μl of 0.5M (3%) orthophosphoric acid. Assays were harvested onto P81 Unifilter plates using a wash buffer of 50 mM orthophosphoric acid.

Lck = Lck (Homo sapiens, UniProt P06239); experiment: Kinase screen: LCK assay
Chain of Lck (P06239 whole entry, species assumed): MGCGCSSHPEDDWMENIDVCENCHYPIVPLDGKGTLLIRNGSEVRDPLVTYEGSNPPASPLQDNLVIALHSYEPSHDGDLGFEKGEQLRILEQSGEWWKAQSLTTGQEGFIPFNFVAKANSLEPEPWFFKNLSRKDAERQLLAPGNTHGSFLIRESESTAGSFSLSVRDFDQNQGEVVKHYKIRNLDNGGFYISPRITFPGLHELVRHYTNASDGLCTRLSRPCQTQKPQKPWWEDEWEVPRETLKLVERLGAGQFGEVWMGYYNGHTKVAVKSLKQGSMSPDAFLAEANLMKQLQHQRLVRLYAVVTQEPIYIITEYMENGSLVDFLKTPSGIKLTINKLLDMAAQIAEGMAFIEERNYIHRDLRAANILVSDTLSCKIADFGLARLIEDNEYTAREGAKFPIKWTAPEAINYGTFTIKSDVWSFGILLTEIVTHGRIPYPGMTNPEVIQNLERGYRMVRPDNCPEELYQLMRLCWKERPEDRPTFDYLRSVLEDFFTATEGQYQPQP
Procedure: as §1, §2
(500-1000 cpm/pmole) and incubated for 15 min at room temperature Assays were stopped by addition of 5 μl of 0.5 M (3%) orthophosphoric acid and then harvested onto P81 Unifilter plates with a wash buffer of 50 mM orthophosphoric acid.

PIM1 = PIM1 (Homo sapiens, UniProt P11309); experiment: Kinase screen: PIM1 assay
Chain of PIM1 (P11309 whole entry, species assumed): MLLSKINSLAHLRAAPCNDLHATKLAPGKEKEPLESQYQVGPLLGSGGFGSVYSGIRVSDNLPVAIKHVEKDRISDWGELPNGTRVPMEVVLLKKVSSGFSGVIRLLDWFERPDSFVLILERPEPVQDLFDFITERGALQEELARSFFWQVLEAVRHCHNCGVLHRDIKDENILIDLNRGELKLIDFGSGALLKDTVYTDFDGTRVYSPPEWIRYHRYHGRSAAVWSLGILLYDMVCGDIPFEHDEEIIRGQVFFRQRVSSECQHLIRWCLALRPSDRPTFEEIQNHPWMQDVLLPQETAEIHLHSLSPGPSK
Procedure: as §1, §2
PIM1 assay: PIM1 (5-20 mU diluted in 50 mM Tris pH 7.5, 0.1 mM EGTA, 0.1% b-mercaptoethanol, 1 mg/ml BSA) was assayed against a substrate peptide ([…]) (SEQ ID NO: 23) in a final volume of 25.5 μl containing 50 mM Tris pH 7.5, 0.05% b-mercaptoethanol, 300 μM substrate peptide, 10 mM magnesium acetate and 0.02 mM [33P-g-ATP] (50-1000 cpm/pmole) and incubated for 30 min at room temperature. Assays were stopped by addition of 5 μl of 0.5 M (3%) orthophosphoric acid and then harvested onto P81 Unifilter plates with a wash buffer of 50 mM orthophosphoric acid.

P38β MAPK = P38β MAPK (Homo sapiens, UniProt Q15759); experiment: Kinase screen: SAPK 2b/p38β2 assay
Chain of P38β MAPK (Q15759 whole entry): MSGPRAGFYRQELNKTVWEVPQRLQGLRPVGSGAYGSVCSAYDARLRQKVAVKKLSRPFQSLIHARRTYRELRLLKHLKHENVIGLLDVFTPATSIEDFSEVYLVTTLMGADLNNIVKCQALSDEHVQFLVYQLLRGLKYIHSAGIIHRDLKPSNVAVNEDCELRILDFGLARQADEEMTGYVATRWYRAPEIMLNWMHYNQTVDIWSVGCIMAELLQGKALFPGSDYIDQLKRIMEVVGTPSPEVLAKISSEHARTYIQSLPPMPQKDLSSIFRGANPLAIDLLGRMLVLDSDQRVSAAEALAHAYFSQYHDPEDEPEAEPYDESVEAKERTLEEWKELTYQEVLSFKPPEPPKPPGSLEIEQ
Procedure: as §1, §2
SAPK 2b/p38β2 assay: SAPK 2b/p38β2 (5-20 mU diluted in 50 mM Tris pH 7.5, 0.1 mM EGTA, 0.1 mM Na3VO4, 0.1% b-mercaptoethanol, 1 mg/ml BSA) was assayed against MBP in a final volume of 25.5 μl containing 25 mM Tris pH 7.5, 0.1 mM EGTA, 0.33 mg/ml MBP, 10 mM magnesium acetate and 0.02 mM [33P-g-ATP] (50-1000 cpm/pmole) and incubated for 30 min at room temperature. Assays were stopped by addition of 5 μl of 0.5 M (3%) orthophosphoric acid and then harvested onto P81 Unifilter plates with a wash buffer of 50 mM orthophosphoric acid.

[1] = 10 micromolar compound, read-out: mean activity remaining (as a percentage of the original activity), DYRK 2
[2] = 10 micromolar compound, read-out: mean activity remaining (as a percentage of the original activity), PIM2
[3] = 10 micromolar compound, read-out: mean activity remaining (as a percentage of the original activity), Lck
[4] = 10 micromolar compound, read-out: mean activity remaining (as a percentage of the original activity), PIM1
[5] = 10 micromolar compound, read-out: mean activity remaining (as a percentage of the original activity), p38b MAPK

| Structure (SMILES) | remaining activity at 10 µM (DYRK2; [1]) | remaining activity at 10 µM (PIM2; [2]) | remaining activity at 10 µM (Lck; [3]) | remaining activity at 10 µM (PIM1; [4]) | remaining activity at 10 µM (P38β MAPK; [5]) | also measured |
| --- | --- | --- | --- | --- | --- | --- |
| CC(C)c1cnn2c(NCc3ccccc3F)cc(NCCCCCN)nc12 [ICEC-0232] |  |  |  |  |  | mean activity remaining (as a percentage of the original activity), DYRK 2 (DYRK2; 10 micromolar compound): 68%; mean activity remaining (as a percentage of the original activity), PIM2 (PIM2; 10 micromolar compound): 102%; mean activity remaining (as a percentage of the original activity), Lck (Lck; 10 micromolar compound): 62%; mean activity remaining (as a percentage of the original activity), PIM1 (PIM1; 10 micromolar compound): 110%; mean activity remaining (as a percentage of the original activity), p38b MAPK (P38β MAPK; 10 micromolar compound): 102% |
| CC(C)c1cnn2c(NCc3ccccc3)cc(NCCCCCCCN)nc12 [BS-181] |  |  |  |  |  | remaining activity at 10 µM (DYRK2; DYRK2, 10 μM, read-out: Mean Remaining Enzyme Activity (%)): 94%; remaining activity at 10 µM (PIM2; PIM2, 10 μM, read-out: Mean Remaining Enzyme Activity (%)): 102%; remaining activity at 10 µM (Lck; Lck, 10 μM, read-out: Mean Remaining Enzyme Activity (%)): 95%; remaining activity at 10 µM (PIM1; PIM1, 10 μM, read-out: Mean Remaining Enzyme Activity (%)): 88%; remaining activity at 10 µM (P38β MAPK; P38β MAPK, 10 μM, read-out: Mean Remaining Enzyme Activity (%)): 115% |
| CC[C@H](CO)Nc1cc(NCc2ccccc2)n2ncc(C(C)C)c2n1 [ICEC0067] | 90% | 92% | 70% | 107% | 98% |  |
| C=C[C@H](CO)Nc1cc(NCc2ccccc2)n2ncc(C(C)C)c2n1 [ICEC0065] | 90% | 93% | 74% | 113% | 104% |  |
| CC(C)c1cnn2c(NCc3ccccc3)cc(N[C@@H](CO)[C@H](O)CO)nc12 [ICEC0318, (3S)-3-(7-(Benzylamino)-3-isopropylpyrazolo[1,5-a]pyrimidin-5-ylamino)butane-1,2,4-triol] | 75% | 94% | 85% | 103% | 94% |  |
